# Marks after values point to notes of the source that are not given here.
# Legend:
# glycerol-rat model = experiment: Acute renal protection in the glycerol rat (haemolytic-uraemic syndrome); assay type: in vivo; conditions: Group 3: glycerol + 10 mg/kg BW p.o. 8 and 19 h after glycerol injection
# Description: B-2. Acute Renal Protection by Partial A1 Agonists in the Glyeriol Rat (Haemolytic-Uraemic Syndrome; Example for Acute Kidney Disorders)
# Glycerol-induced haemolysis in rats is an established animal model for investigating haemolysis-induced, acute renal failure with decrease of the individual nephron filtrate and a rapid increase in substances that are usually eliminated in the urine, such as creatinine and urea. Haemolytic uraemia leads to acute blockade of the tubules through protein deposits (“luminal casts”) and finally to degeneration/necrosis of the tubules. At present there is no known curative therapy, i.e. an antidegenerative therapy of structural kidney injury.
# Procedure: male Wistar:WU rats (200-220 g) from Charles River received, after withdrawal of water for 14-18 hours, a single subcutaneous injection of a 50% glycerol solution (8 ml/kg body weight) or 0.9% NaCl (controls). The following groups were investigated:
# Group 2 Glycerol+placebo (60 g glycerol+100 g water+969 g PEG-400); n=12
# Group 3 Glycerol+10 mg/kg BW partial A1 agonist EXAMPLE 1, p.o. in placebo, 8 and 19 hours after glycerol injection; n=8
# At the end of the protocol (=24 hours after glycerol intoxication), the following samples were obtained/measurements were carried out: four-hour urine collection with administration of water (10 ml water/kg body weight, p.o.), and TaqMan analyses of renal injury markers in the renal cortex of the right kidney and histological assessment of the “kidney injury score” in the left kidney, by determining the degree of renal damage from the intensity of “luminal casts+tubular necrosis/degeneration”.
# [1] = tested on: unilaterally nephrectomized SHR; experiment: Functional and structural myocardial dysfunction in unilaterally nephrectomized spontaneously hypertensive rats; assay type: in vivo, rat; conditions: Group 4: SNX + 1.0 mg/kg body weight/day p.o., 4 weeks
# Description: B-4. Effects of Partial A1 Agonists on Renal and Cardiac Function in Unilaterally Nephrectomized and Spontaneously Hypertensive Rats (Example 2 for Chronic Kidney Disorders)
# Unilaterally nephrectomized, spontaneously hypertensive rats (SHR) are an established animal model for investigating the development and progression of hypertensive damage of the glomeruli in the remaining kidney [H. Kinuno et al., “Effects of uninephrectomy on renal structural properties in spontaneously hypertensive rats”, Clin and Exp Pharmacol and Physiol 2005, 32, 173-178]. […] Furthermore, renal excretion of substances usually eliminated in the urine, such as creatinine and urea, is reduced and the electrolyte metabolism is disturbed, the latter being associated with volume retention.
# Procedure: male SHR rats (180-220 g) from Taconic had the left kidney removed in one session (=UNX). Normotensive Wistar Kyoto rats (WKY) from Taconic served as control. The following groups, each with 12 rats per group, were investigated:
# Group 2 UNX+placebo (60 g glycerol+100 g water+969 g PEG-400)
# Group 3 UNX+10 mg/kg body weight/day enalapril (reference therapy, in the drinking water)
# Group 4 SNX+1.0 mg/kg body weight/day partial A1 EXAMPLE 1, p.o. in placebo
# Group 5 SNX+3.0 mg/kg body weight/day partial A1 EXAMPLE 4, p.o. in placebo
# Three weeks after unilateral nephrectomy, the SHRs developed manifest hypertensive damage of the glomeruli in the remaining kidney, from this time point on the rats were treated for a further four weeks corresponding to the groups given above. At the end of the protocol, the following samples were obtained/measurements were carried out: eight-hour urine collection, invasive measurement of systolic and diastolic left ventricular function, and TaqMan analyses of renal injury markers in the renal cortex.
smiles,measurement,setting,value
"N#Cc1c(N)nc(SCc2csc(-c3ccc(Cl)cc3)n2)c(C#N)c1-c1ccc(OCCO)cc1 [EXAMPLE 1, 2-Amino-6-({[2-(4-chlorophenyl)-1,3-thiazol-4-yl]methyl}sulphanyl)-4-[4-(2-hydroxyethoxy)phenyl]pyridine-3,5-dicarbonitrile]",P-creatinine,glycerol-rat model; 24 h after glycerol,52 ± 1 µmol/L
same,P-urea,glycerol-rat model; 24 h after glycerol,11 ± 0.4*^ mmol/l
same,Kidney injury marker-1,"glycerol-rat model; TaqMan, renal cortex",951 ± 216 rel. expression
same,Lipocalin-2,"glycerol-rat model; TaqMan, renal cortex",204 ± 23 rel. expression
same,Osteopontin,"glycerol-rat model; TaqMan, renal cortex",5575 ± 694 rel. expression
same,U-creatinine,glycerol-rat model; four-hour urine collection,0.2 ± 0.03 μmol/ml urine/kg BW/h
same,U-protein,glycerol-rat model; four-hour urine collection,0.02 ± 0.01 μmol/ml urine/kg BW/h
same,U-sodium,glycerol-rat model; four-hour urine collection,4 ± 1 μmol/ml urine/kg BW/h
same,U-urea,glycerol-rat model; four-hour urine collection,31 ± 6 μmol/ml urine/kg BW/h
same,Urine volume,glycerol-rat model; four-hour urine collection,6.7 ± 0.6 ml/kg BW/h
same,Kidney injury score (histo),"glycerol-rat model; left kidney, luminal casts + tubular necrosis/degeneration",1.12
same,Diastolic blood pressure,[1],112 ± 6 mmHg
same,Heart rate,[1],295 ± 11 beats/min
same,"Left ventricular hypertrophy (LVS/RV ratio, mg/mg)",[1],4.3 ± 0.2 mg/mg
same,Left-ventricular end-diastolic pressure,[1],8.5 ± 1.3 mmHg
same,Left-ventricular pressure,[1],169 ± 8 mmHg
same,Pressure decrease over time,[1],−10181 ± 523 mmHg/s
same,Pressure increase over time,[1],7943 ± 512 mmHg/s
same,Systolic blood pressure,[1],171 ± 8 mmHg

# From patent US20160311812A1, “ADENOSINE A1 AGONISTS AS MEDICAMENTS FOR KIDNEY DISORDERS” (BAYER PHARMA AKTIENGESELLSCHAFT, priority 2013, published 2016)
